Experimental data published in patent USRE50528E1, “Compounds and compositions for modulating EGFR mutant kinase activities” (Yuhan Corporation, priority 2014, dated 2025).
pIC50: −log10 of the molar value.

Key:
[1] = biological target: T1, EGFR mutant T790M (Homo sapiens, UniProt P00533, T790M); test: Kinase inhibition assay, EGFR mutant T790M; details: biochemical potency;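 further: truncated human EGFR mutant enzyme preincubated two hours with compound, then ATP plus ULight-PolyGT peptide for one hour, Europium-labeled antibody LANCE detection, IC50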
T1 construct: truncated human JAK3, EGFR mutants such as del E746-A750; purchased Carna Biosciences
T1 sequence (P00533 669-1210 T790M limits assumed): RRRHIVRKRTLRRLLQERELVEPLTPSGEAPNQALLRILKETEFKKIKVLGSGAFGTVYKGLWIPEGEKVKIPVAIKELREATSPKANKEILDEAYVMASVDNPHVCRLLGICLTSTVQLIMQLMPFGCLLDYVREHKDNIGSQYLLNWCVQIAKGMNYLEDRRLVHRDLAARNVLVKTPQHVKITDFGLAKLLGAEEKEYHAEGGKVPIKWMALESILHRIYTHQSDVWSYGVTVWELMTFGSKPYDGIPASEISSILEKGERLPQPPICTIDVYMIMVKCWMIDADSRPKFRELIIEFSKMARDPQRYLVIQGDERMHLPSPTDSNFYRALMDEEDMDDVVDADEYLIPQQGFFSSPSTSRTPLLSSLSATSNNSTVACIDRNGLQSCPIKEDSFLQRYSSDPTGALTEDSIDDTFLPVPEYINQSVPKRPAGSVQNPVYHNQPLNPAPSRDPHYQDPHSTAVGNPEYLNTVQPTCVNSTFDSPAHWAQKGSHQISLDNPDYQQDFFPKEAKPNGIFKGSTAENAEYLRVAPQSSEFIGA

[2] = biological target: T2, EGFR mutant Del19 (E746-A750) (Homo sapiens, UniProt P00533, DEL746-750); test: Kinase inhibition assay, EGFR del E746-A750; type: biochemical; details: read-out: EGFR mutants Del19 (E746-A750);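 further: truncated human EGFR mutant kinase, two-hour preincubation with compound, then one-hour reaction with ATP and ULight-PolyGT peptide, LANCE Europium-antibody phosphorylation readout, IC50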
T2 construct: truncated human JAK3, EGFR mutants such as del E746-A750; purchased Carna Biosciences
T2 sequence (P00533 with tags, fused parts or gaps DEL746-750 limits assumed): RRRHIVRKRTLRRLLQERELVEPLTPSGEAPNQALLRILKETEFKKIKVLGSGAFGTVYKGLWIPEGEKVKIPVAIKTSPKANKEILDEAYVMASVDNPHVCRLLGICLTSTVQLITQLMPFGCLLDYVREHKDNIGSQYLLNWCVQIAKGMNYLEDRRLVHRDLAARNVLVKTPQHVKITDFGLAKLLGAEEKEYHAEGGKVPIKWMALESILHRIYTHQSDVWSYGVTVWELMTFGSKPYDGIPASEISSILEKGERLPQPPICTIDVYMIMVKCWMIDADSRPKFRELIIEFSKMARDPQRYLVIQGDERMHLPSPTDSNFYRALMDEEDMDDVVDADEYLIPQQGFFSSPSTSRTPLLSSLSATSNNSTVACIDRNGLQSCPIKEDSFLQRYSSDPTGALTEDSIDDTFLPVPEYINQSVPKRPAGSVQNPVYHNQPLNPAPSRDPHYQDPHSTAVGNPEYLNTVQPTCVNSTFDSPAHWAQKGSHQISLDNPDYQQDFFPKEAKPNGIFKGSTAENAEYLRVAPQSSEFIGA

[3] = biological target: T3, EGFR mutant L858R (Homo sapiens, UniProt P00533, L858R); test: Kinase inhibition assay, EGFR L858R; type: biochemical; details: read-out: EGFR mutants L858R;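 further: truncated human EGFR L858R kinase with compound preincubation, ULight-PolyGT peptide phosphorylation read by Europium-antibody Lance detection, IC50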
T3 construct: truncated human JAK3, EGFR mutants such as del E746-A750; purchased Carna Biosciences
T3 sequence (P00533 669-1210 L858R limits assumed): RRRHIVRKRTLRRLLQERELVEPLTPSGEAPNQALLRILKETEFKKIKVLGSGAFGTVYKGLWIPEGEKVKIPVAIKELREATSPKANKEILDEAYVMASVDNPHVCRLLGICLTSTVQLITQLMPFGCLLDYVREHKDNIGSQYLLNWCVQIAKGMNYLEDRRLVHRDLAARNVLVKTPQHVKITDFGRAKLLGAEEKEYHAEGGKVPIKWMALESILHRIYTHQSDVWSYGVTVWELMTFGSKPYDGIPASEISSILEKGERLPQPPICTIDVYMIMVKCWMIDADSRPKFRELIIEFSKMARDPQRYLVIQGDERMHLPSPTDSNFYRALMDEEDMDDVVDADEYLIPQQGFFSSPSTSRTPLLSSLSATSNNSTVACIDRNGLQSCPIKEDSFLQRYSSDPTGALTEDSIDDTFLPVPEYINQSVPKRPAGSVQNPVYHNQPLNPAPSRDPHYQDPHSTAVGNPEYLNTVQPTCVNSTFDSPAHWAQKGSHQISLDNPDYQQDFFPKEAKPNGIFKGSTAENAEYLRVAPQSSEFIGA

[4] = biological target: T4, EGFR mutant L858R/T790M (Homo sapiens, UniProt P00533, L858R/T790M); test: Kinase inhibition assay, EGFR L858R/T790M; type: biochemical; details: read-out: EGFR mutants L858R/T790M;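 further: truncated human enzyme preincubated two hours with compound, then one hour with one millimolar ATP and ULight-PolyGT peptide, Europium-labeled antibody detection, IC50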
T4 construct: truncated human JAK3, EGFR mutants such as del E746-A750; purchased Carna Biosciences
T4 sequence (P00533 669-1210 T790M/L858R limits assumed): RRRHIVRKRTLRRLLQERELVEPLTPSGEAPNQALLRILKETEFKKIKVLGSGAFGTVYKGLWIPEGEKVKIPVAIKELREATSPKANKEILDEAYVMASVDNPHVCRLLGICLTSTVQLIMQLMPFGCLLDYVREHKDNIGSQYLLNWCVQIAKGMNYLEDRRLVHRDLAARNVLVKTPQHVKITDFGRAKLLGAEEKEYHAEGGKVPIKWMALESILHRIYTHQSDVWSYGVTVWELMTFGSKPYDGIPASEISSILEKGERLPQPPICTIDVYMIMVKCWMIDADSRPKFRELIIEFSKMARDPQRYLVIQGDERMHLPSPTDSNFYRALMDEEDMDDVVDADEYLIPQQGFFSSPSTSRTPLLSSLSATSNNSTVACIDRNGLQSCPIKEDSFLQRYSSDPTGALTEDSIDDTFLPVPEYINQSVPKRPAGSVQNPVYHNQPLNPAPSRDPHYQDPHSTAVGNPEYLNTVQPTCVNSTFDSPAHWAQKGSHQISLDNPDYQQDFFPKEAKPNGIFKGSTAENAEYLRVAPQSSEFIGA

[5] = biological target: T5, EGFR mutant Del19/T790M (Homo sapiens, UniProt P00533, DEL746-750/T790M); test: Kinase inhibition assay, EGFR del E746-A750/T790M; type: biochemical; details: read-out: EGFR mutants Del19/T790M
T5 construct: truncated human JAK3, EGFR mutants such as del E746-A750; purchased Carna Biosciences

[6] = biological target: T6, JAK3 (Homo sapiens, UniProt P52333); test: Kinase inhibition assay, JAK3; details: biochemical potency;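 further: IC50 against purified truncated human JAK3 preincubated with compound, then reacted with ATP and ULight-Jak1 peptide, phosphorylation read by Europium-labeled antibody LANCE detection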
T6 construct: EGFR and JAK3 (JH1domain-catalytic) kinases, and mutant forms thereof; purchased Carna Biosciences
T6 sequence (P52333 822-1111 limits assumed): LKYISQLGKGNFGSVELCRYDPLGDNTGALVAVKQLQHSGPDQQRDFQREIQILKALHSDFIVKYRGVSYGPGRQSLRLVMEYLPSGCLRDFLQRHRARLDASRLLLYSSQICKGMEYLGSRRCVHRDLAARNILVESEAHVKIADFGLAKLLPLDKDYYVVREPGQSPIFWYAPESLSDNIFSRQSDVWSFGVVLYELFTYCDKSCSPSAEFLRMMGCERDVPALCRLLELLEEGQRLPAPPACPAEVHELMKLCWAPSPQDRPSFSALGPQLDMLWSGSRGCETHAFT

[7] = biological target: T7, SYK (Homo sapiens, UniProt P43405); test: Kinase inhibition assay, SYK; type: biochemical; details: biochemical potency;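 further: purified full-length human SYK pre-incubated 30 min with compound, then ULight-TK peptide phosphorylation for 1 h, detected with Europium-labeled antibody in Lance buffer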
T7 construct: Purified human, full-length SYK, KDR; purchased Carna Biosciences

[8] = biological target: T8, KDR (Homo sapiens, UniProt P35968); test: Kinase inhibition assay, KDR; type: biochemical; details: biochemical potency;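 further: purified full-length human KDR, 30 min preincubation with compound, then 1 h reaction with ATP and Ulight-Jak1 peptide substrate, phosphorylation read by Lance Europium antibody detection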
T8 construct: Purified human, full-length SYK, KDR; purchased Carna Biosciences

[9] = test system: H2073 (EGFR wildtype); test: Cell viability assay, H2073; type: cell-based; details: NCI-H2073; cellular potency; 72-hour incubation; ATPLite;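 further: NSCLC cell line whose survival relies on wildtype EGFR, treated with serially diluted compound, cytotoxic effect judged from remaining cell viability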
[10] = test system: PC9 (EGFR del E746-A750 mutant); test: Cell viability assay, PC9; type: cell-based; details: for Selectivity over wildtype, Wildtype vs mutant H2073/PC9 (fold): cellular potency ratio; for pIC50: cellular potency, 72-hour incubation, ATPLite, read-out: EGFR Mutants PC9;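 on all read-outs here: NSCLC PC9 cells, whose viability relies on EGFR del E746-A750, exposed to serially diluted compound for 72 h at 37 °C, ATPLite read-out, IC50, H2073 as EGFR wildtype line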
[11] = test system: H1975 (EGFR L858R/T790M mutant); test: Cell viability assay, H1975; type: cell-based; details: for pIC50: Homo sapiens, NCI-H1975, cellular potency, 72-hour incubation, ATPLite, read-out: EGFR Mutants H1975; for Selectivity over wildtype, Wildtype vs mutant H2073/H1975 (fold): cellular potency ratio;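 on all read-outs here: NSCLC cells whose survival relies on EGFR L858R/T790M, exposed 72 h to serially diluted compound, ATP-based viability readout, with the H2073 line (wildtype EGFR dependent) as wildtype comparator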
[12] = biological target: T9, p-EGFR wildtype (Homo sapiens, UniProt P00533); test: Western analysis, H1299 p-EGFR wildtype; type: cell-based; details: molecular potency; 4 hours; 3 nM EGF ligand
T9 construct: endogenous in cells; host or cells: H1299

[13] = biological target: T10, p-EGFR del E746-A750 (Homo sapiens, UniProt P00533, DEL746-750); test: Western analysis, PC9 p-EGFR del E746-A750; type: cell-based; details: for Selectivity over wildtype: p-wildtype over p-EGFR del19: H1299 vs PC9; for pIC50: molecular potency, 4 hours, read-out: PC9 p-EGFR del 19 (E746-A750)
T10 construct: phosphorylation of mutant EGFR in NSCLC lines PC9; endogenous in cells; host or cells: PC9
T10 sequence (P00533 with tags, fused parts or gaps DEL746-750): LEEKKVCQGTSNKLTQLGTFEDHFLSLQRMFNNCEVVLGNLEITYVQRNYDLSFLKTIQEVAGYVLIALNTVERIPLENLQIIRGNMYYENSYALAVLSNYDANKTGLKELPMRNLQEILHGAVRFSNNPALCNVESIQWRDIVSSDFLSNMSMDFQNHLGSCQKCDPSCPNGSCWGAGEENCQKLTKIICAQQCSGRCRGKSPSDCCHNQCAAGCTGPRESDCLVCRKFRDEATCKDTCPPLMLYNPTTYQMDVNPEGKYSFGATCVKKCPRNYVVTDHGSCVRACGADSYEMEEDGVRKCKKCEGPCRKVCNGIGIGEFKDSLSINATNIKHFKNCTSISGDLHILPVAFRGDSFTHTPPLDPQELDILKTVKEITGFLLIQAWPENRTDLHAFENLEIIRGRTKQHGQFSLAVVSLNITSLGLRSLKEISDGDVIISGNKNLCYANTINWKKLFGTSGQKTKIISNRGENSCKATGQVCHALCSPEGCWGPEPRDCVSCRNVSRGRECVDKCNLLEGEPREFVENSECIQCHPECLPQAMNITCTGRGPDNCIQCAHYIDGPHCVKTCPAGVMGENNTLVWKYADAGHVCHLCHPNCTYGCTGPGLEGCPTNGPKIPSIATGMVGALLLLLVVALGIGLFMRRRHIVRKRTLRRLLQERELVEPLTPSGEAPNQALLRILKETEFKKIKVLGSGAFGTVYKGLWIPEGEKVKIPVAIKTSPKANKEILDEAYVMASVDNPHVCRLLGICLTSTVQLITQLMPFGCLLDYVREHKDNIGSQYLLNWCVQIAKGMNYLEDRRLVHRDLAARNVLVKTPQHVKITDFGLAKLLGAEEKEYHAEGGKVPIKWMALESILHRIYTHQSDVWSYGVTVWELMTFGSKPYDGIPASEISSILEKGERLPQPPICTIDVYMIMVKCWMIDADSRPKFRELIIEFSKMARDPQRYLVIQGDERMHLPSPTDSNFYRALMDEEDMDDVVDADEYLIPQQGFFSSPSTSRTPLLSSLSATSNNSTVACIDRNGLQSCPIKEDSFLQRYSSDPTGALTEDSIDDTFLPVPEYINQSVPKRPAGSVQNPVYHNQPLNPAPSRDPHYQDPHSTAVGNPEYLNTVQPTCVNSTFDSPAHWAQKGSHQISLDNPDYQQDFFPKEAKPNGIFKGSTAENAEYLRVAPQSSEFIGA

[14] = biological target: T11, p-EGFR L858R/T790M (Homo sapiens, UniProt P00533, L858R/T790M); test: Western analysis, H1975 p-EGFR L858R/T790M; type: cell-based; details: for Selectivity over wildtype: p-wildtype over p-EGFR L858R, T790M: H1299 vs H1975; for pIC50: molecular potency, 4 hours
T11 construct: phosphorylation of mutant EGFR in NSCLC lines H1975; endogenous in cells; host or cells: H1975
T11 sequence (P00533 25-1210 T790M/L858R): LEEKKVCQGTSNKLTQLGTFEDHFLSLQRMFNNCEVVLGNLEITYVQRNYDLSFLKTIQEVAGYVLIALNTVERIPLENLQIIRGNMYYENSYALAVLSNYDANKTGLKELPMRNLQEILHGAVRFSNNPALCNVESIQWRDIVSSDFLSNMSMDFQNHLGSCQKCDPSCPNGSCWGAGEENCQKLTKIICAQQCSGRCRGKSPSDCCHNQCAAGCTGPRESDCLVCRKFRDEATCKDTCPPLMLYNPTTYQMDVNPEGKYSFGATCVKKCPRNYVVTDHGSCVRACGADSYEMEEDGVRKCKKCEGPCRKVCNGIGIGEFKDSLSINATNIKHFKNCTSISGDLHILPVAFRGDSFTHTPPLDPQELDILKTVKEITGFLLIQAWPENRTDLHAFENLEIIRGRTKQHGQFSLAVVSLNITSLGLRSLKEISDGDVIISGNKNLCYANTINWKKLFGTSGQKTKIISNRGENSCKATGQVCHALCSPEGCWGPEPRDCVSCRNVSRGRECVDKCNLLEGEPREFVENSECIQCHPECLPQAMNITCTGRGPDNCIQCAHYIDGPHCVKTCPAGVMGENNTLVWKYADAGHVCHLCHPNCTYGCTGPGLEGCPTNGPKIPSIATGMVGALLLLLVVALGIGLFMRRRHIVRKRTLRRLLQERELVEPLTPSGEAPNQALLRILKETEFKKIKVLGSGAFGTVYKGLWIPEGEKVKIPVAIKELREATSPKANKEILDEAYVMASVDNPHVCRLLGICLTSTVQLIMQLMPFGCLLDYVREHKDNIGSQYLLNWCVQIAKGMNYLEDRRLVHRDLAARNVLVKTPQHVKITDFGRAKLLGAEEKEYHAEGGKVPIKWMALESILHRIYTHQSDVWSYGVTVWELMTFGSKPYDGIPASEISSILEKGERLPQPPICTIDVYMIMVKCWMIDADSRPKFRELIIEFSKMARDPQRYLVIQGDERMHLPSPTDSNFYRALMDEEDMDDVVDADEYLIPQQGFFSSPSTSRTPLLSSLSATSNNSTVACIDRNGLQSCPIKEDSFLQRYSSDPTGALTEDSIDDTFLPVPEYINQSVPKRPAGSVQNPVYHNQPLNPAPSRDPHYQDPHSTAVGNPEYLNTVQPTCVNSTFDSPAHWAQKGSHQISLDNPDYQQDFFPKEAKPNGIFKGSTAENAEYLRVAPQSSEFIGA

| pIC50 [1] | pIC50 [2] | pIC50 [3] | pIC50 [4] | pIC50 [5] | pIC50 [6] | pIC50 [7] | pIC50 [8] | pIC50 [9] | pIC50 [10] | pIC50 [11] | pIC50 [12] | Selectivity over wildtype: p-wildtype over p-EGFR del19 [13] | pIC50 [13] | Selectivity over wildtype: p-wildtype over p-EGFR L858R, T790M [14] | pIC50 [14] | SMILES | Selectivity over wildtype, Wildtype vs mutant H2073/PC9 (fold) [10] [fold] | Selectivity over wildtype, Wildtype vs mutant H2073/H1975 (fold) [11] [fold] |
| --- | --- | --- | --- | --- | --- | --- | --- | --- | --- | --- | --- | --- | --- | --- | --- | --- | --- | --- |
| > 7.70 | > 7.70 | > 7.70 | > 7.70 | > 7.70 | 6.70 to 7.70 | < 6.00 | < 6.00 | < 6.00 | > 7.70 | > 7.70 | < 6.00 | >200 fold | > 7.70 | 101-200 fold | > 7.70 | C=CC(=O)Nc1cc(Nc2nccc(-n3cc(CN4CCC4)c(-c4ccccc4)n3)n2)c(OC)cc1N1CCOCC1 [Compound 78, N-(5-(4-(4-(azetidin-1-ylmethyl)-3-phenyl-1H-pyrazol-1-yl)pyrimidin-2-ylamino)-4-methoxy-2-morpholinophenyl)acrylamide] | >200 | >200 |
| > 7.70 | > 7.70 | > 7.70 | > 7.70 | > 7.70 | > 7.70 | 6.70 to 7.70 | < 6.00 | < 6.00 | > 7.70 | > 7.70 | 6.00 to 6.70 | 20-100 fold | > 7.70 | 20-100 fold | > 7.70 | C=CC(=O)Nc1cc(Nc2ncc(C)c(-n3cc(CN(C)C)c(C4CC4)n3)n2)c(OC)cc1N1CCOCC1 [Compound 122, N-(5-(4-(3-cyclopropyl-4-((dimethylamino)methyl)-1H-pyrazol-1-yl)-5-methylpyrimidin-2-ylamino)-4-methoxy-2-morpholinophenyl)acrylamide] | >200 | >200 |
